ChEMBL document CHEMBL3228017, “Apparent bioisosteric replacement of--S--by NCN: synthesis of N--cyano-2-aza-A-nor-5alpha-androstan-17beta-ol acetate, an aza steroid androgen” (1979)
The source made the active and inactive calls. The calls are words filed in the database; no cut-off is given here.

What was measured:
Rattus norvegicus [1] = organism: Rattus norvegicus; test: Androgenic activity in rat assessed as increase of seminal vesicle weight (reference value: 11.4 +/- 0.38 mg); assay type: functional
Rattus norvegicus [2] = organism: Rattus norvegicus; test: Androgenic activity in rat assessed as increase of ventral prostate weight (reference value: 18.1 +/- 0.91 mg); assay type: functional, Prostate gland
Rattus norvegicus [3] = organism: Rattus norvegicus; test: Androgenic activity in rat assessed as increase in final body weight (reference value: 98 g); assay type: functional
Rattus norvegicus [4] = organism: Rattus norvegicus; test: Myotrophic activity in rat assessed as increase of levator ani weight (reference value: 32.2 +/- 1.82 mg); assay type: functional
Rattus norvegicus [5] = organism: Rattus norvegicus; test: Antimyotrophic activity in rat assessed as reduction in levator ani weight at 3 mg; assay type: functional, organism-based
Rattus norvegicus [6] = organism: Rattus norvegicus; test: Androgenic activity in rat assessed as increase in final body weight at 3 mg in presence of testosterone (reference value: 98 g); assay type: functional
Rattus norvegicus [7] = organism: Rattus norvegicus; test: Androgenic activity in rat assessed as increase of seminal vesicle weight at 3 mg (reference value: 11.4 +/- 0.38 mg); assay type: functional
Rattus norvegicus [8] = organism: Rattus norvegicus; test: Antiandrogenic activity in rat assessed as reduction in seminal vesicle weight at 3 mg; assay type: functional, organism-based
Rattus norvegicus [9] = organism: Rattus norvegicus; test: Myotrophic activity in rat assessed as increase of levator ani weight at 3 mg in presence of testosterone (reference value: 32.2 +/- 1.82 mg); assay type: functional
Rattus norvegicus [10] = organism: Rattus norvegicus; test: Androgenic activity in rat assessed as increase of seminal vesicle weight at 3 mg in presence of testosterone (reference value: 11.4 +/- 0.38 mg); assay type: functional
Rattus norvegicus [11] = organism: Rattus norvegicus; test: Androgenic activity in rat assessed as increase of ventral prostate weight at 3 mg (reference value: 18.1 +/- 0.91 mg); assay type: functional, Prostate gland
Rattus norvegicus [12] = organism: Rattus norvegicus; test: Androgenic activity in rat assessed as increase of ventral prostate weight at 3 mg in presence of testosterone (reference value: 18.1 +/- 0.91 mg); assay type: functional, Prostate gland
Rattus norvegicus [13] = organism: Rattus norvegicus; test: Androgenic activity in rat assessed as increase in final body weight at 3 mg (reference value: 98 g); assay type: functional
Rattus norvegicus [14] = organism: Rattus norvegicus; test: Myotrophic activity in rat assessed as increase of levator ani weight at 3 mg (reference value: 32.2 +/- 1.82 mg); assay type: functional
Rattus norvegicus [15] = organism: Rattus norvegicus; test: Antiandrogenic activity in rat assessed as reduction in ventral prostate weight at 3 mg; assay type: functional, organism-based; conditions: Prostate gland
Rattus norvegicus [16] = organism: Rattus norvegicus; test: Myotrophic activity in rat assessed as increase of levator ani weight at 0.3 mg (reference value: 32.2 +/- 1.82 mg); assay type: functional
Rattus norvegicus [17] = organism: Rattus norvegicus; test: Androgenic activity in rat assessed as increase of ventral prostate weight at 0.3 mg (reference value: 18.1 +/- 0.91 mg); assay type: functional, Prostate gland
Rattus norvegicus [18] = organism: Rattus norvegicus; test: Androgenic activity in rat assessed as increase of seminal vesicle weight at 0.3 mg (reference value: 11.4 +/- 0.38 mg); assay type: functional
Rattus norvegicus [19] = organism: Rattus norvegicus; test: Androgenic activity in rat assessed as increase in final body weight at 0.3 mg (reference value: 98 g); assay type: functional

SMILES: CC(=O)O[C@H]1CC[C@H]2[C@@H]3CC[C@H]4CN(Cc5ccccc5)C[C@]4(C)[C@H]3CC[C@]12C
- Activity (Rattus norvegicus [1]): 10.7 mg
- Activity (Rattus norvegicus [2]): 19.4 mg
- Activity (Rattus norvegicus [3]): 89 g
- Activity (Rattus norvegicus [4]): 24.2 mg

SMILES: CC(=O)O[C@H]1CC[C@H]2[C@@H]3CC[C@H]4CN(C#N)C[C@]4(C)[C@H]3CC[C@]12C
- inhibition (Rattus norvegicus [5]): inactive
- Activity (Rattus norvegicus [6]): 99 g
- Activity (Rattus norvegicus [7]): 33.3 mg
- inhibition (Rattus norvegicus [8]): inactive
- Activity (Rattus norvegicus [9]): 58.7 mg
- Activity (Rattus norvegicus [10]): 40.6 mg
- Activity (Rattus norvegicus [11]): 56.1 mg
- Activity (Rattus norvegicus [12]): 61.6 mg
- Activity (Rattus norvegicus [13]): 95 g
- Activity (Rattus norvegicus [14]): 55.8 mg
- inhibition (Rattus norvegicus [15]): inactive

SMILES: C[C@]12CC[C@H]3[C@@H](CCC4=CC(=O)CC[C@@]43C)[C@@H]1CC[C@@H]2O [TESTOSTERONE]
- Activity (Rattus norvegicus [16]): 37.8 mg
- Activity (Rattus norvegicus [17]): 35.3 mg
- Activity (Rattus norvegicus [18]): 12.9 mg
- Activity (Rattus norvegicus [19]): 97 g
